The subject of one test is T98G glioma cell line. Put plainly: MTS proliferation assay. The format is cell-based. To be noted: Homo sapiens, 48 h, read-out: IC50 values T98G cell line. For orientation: Tetrazolium assays rely on reduction of a dye to a coloured formazan, in cell work by metabolically active cells.
Test [1] addresses T1, immobilized ERRα ligand binding domain (Homo sapiens, UniProt P11474).
T1 sequence (P11474 193-421 limits assumed): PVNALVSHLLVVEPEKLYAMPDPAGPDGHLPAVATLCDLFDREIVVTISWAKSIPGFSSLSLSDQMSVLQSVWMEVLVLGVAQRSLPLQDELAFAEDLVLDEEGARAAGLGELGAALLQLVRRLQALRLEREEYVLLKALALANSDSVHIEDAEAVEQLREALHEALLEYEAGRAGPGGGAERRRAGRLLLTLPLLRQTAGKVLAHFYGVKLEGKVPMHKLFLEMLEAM
Put plainly: Retention on the ERRα column. The conditions noted are these: data not shown.

For another test, the system named is ERRα. To be noted: cited from earlier work.
The target in a further test is ERRγ. To be noted: cited from earlier work.
In test [2] the target is T2, immobilized ERRγ ligand binding domain (Homo sapiens, UniProt P62508).
T2 sequence (P62508 233-457 limits assumed): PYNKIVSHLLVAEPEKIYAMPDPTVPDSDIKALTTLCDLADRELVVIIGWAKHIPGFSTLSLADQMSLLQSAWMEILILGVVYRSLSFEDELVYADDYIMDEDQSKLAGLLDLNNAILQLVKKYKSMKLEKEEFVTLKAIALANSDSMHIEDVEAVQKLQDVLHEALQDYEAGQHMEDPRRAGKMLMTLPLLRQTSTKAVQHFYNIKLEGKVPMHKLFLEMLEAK
Put plainly: Non-linear chromatography.

Molecules are shown by their SMILES.

Turning to `CC/C(=C(\c1ccc(O)cc1)c1ccc(OCCN(C)C)cc1)c1ccccc1` [4-hydroxy tamoxifen], in the test with T98G glioma cell line, the IC50 was 14500 nM. In test [1], the “specific retention on the ERRα column” value is reported as “not specifically retained”. In the test with ERRα, the “affinity for the ERRα” value is listed as “no affinity”. Further, the Ki at ERRγ was 75 nM.

In the case of `CC/C(=C(\c1ccccc1)c1ccc(OCCN(C)C)cc1)c1ccccc1` [Tamoxifen], the “affinity for the ERRα” value with ERRα is reported as “no affinity”.

For `CC/C(=C(\c1ccc(O)cc1)c1ccc(OCCNC)cc1)c1ccccc1` [Endoxifen], in test [2], the Kd worked out at 43.2 nM. Besides, in the test on T98G glioma cell line, the IC50 turned out to be 3400 nM. The “specific retention on the ERRα column” value in test [1] is recorded as “not specifically retained”. The “affinity for the ERRα” value with ERRα was “no affinity”.

Usually IC50 stands for the concentration that inhibits the measured activity by half. The term Ki denotes a measure of affinity in units of concentration, obtained from inhibition or displacement. One may read the Kd as the free concentration of one partner at which half of the binding sites on the other are occupied at equilibrium, for simple one-to-one binding.
